The subject of test [1] is HCT-116. In words: Cytotoxicity against human HCT116 cells after 120 hrs by hemocytometer. The class given is functional, cell-based. The settings on record: HCT-116, 120 h.
In test [2] the test system is KB. In words: Cytotoxicity against human KB cells. Format: functional, cell-based.

A value given as a limit tells only on which side of the number the result lay.

In turn, `CC[C@H](C)[C@H](NC(=O)[C@H](CCC(N)=O)N(C)C(=O)[C@H](OC(=O)[C@@H](O)C(C)C)C(C)C)C(=O)N[C@@H](C)C(=O)N[C@H](Cc1ccccc1)C(=O)N1CCC[C@H]1C(=O)OC` came in with an IC50 in test [1] of 25 µM.

In test [1], `CC[C@H](C)[C@@H](NC(=O)[C@H](CCC(N)=O)N(C)C(=O)[C@H](OC(=O)[C@@H](O)C(C)C)C(C)C)C(=O)N[C@@H](C)C(=O)N(C)[C@H](Cc1ccccc1)C(=O)N1CCC[C@H]1C(=O)OC` came in with an IC50 greater than 25 µM. `CC[C@H](C)[C@H](O)C(=O)N[C@@H](CC(C)C)C(=O)N(C)[C@@H](CCC(N)=O)C(=O)N[C@H](C(=O)NCC(=O)N(C)[C@H](Cc1ccccc1)C(=O)N1CCC[C@H]1C(=O)OC)[C@@H](C)CC` [TASIAMIDE] gave a half-inhibitory concentration (IC50) in test [2] of 0.48 µM.
